Experimental data published in the supplement of paper PMC5579334.

Assays:
YST-1 = assay: relative IC50 (inflection point of fitted dose-response curve, CellTiter-Glo viability, 72 h; top asymptote may be below 50% inhibition); higher = less potent
Procedure, shortened: (§1)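 After seeding 750–1000 cells per well of MPNST cell lines or primary human Schwann cells into 384-well plates preprinted with each compound at five concentrations in 10-fold steps, plates were kept 72 h at 37 °C, 5% CO2. Viability was read as CellTiter-Glo ATP luminescence relative to vehicle and positive-control wells, with duplicates averaged where present. The data were fitted with four-parameter logistic models. Drug sensitivity score and relative IC50, censored at the top concentration, derive from the fits, and percent inhibition refers to the top concentration.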

HS-PSS [1] = assay: as above
Procedure, shortened: as §1

HS-Sch-2 = assay: as above
Procedure, shortened: as §1

HS-PSS [2] = assay: relative IC50 (inflection point of fitted dose-response curve, CellTox-Green cytotoxicity, 72 h; top asymptote may be below 50%); higher = less potent
Procedure, shortened: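 For 72 h at 37 °C, MPNST cell lines and primary human Schwann cells were exposed in 384-well plates to five 10-fold compound dilutions. CellTox-Green, added before seeding at a final 1:1000 dilution, gave fluorescence from DNA released by disrupted cells. Signals were scaled to vehicle and positive-control wells, cultures failing plate quality control were left out, and four-parameter logistic fits were applied. Relative IC50 and drug sensitivity score were derived from the fits, with IC50 censored at the top concentration.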

## CCCCNc1ncc(C(=O)NCc2ccc(-n3ccnc3)cc2)c(NC2CCC(O)CC2)n1 (stereo not given) [UNC2881]
YST-1
  relative IC50: 345 nM
HS-PSS [1]
  relative IC50: 338 nM
HS-Sch-2
  relative IC50: > 2500 nM
HS-PSS [2]
  relative IC50: > 2500 nM

## Cc1cc(C(=O)NOCCO)c(Nc2ccc(I)cc2F)n(C)c1=O [AZD-8330]
YST-1
  relative IC50: > 10000 nM
HS-PSS [1]
  relative IC50: 322 nM
HS-Sch-2
  relative IC50: 174 nM
HS-PSS [2]
  relative IC50: > 10000 nM

## Cc1c(F)cc(C(=O)NC2CC2)cc1-c1ccc(C(=O)NCC(C)(C)C)cn1 [Losmapimod]
YST-1
  relative IC50: 24.9 nM
HS-PSS [1]
  relative IC50: > 10000 nM
HS-Sch-2
  relative IC50: > 10000 nM
HS-PSS [2]
  relative IC50: > 10000 nM

## Cc1sc2c(c1C)C(c1ccc(Cl)cc1)=N[C@@H](CC(=O)OC(C)(C)C)c1nnc(C)n1-2 [JQ1]
YST-1
  relative IC50: 280 nM
HS-PSS [1]
  relative IC50: 379 nM
HS-Sch-2
  relative IC50: 331 nM
HS-PSS [2]
  relative IC50: > 10000 nM

## Cc1ccc(C(=O)Nc2ccc(Oc3cc4cnn(C)c4cc3-c3cn[nH]c3)c(F)c2)c(=O)n1-c1ccc(F)cc1 [Merestinib]
YST-1
  relative IC50: 150 nM
HS-PSS [1]
  relative IC50: 245 nM
HS-Sch-2
  relative IC50: 371 nM
HS-PSS [2]
  relative IC50: > 1000 nM

## O=C(Nc1nc2ccccc2n1CCN1CCOCC1)c1cccc([N+](=O)[O-])c1 [IRAK1/4 inhibitor]
YST-1
  relative IC50: > 25000 nM
HS-PSS [1]
  relative IC50: > 25000 nM
HS-Sch-2
  relative IC50: > 25000 nM
HS-PSS [2]
  relative IC50: > 25000 nM

## CC[C@H](C)C(=O)O[C@H]1C[C@@H](C)C=C2C=C[C@H](C)[C@H](CC[C@@H]3C[C@@H](O)CC(=O)O3)[C@H]21 [Lovastatin]
YST-1
  relative IC50: > 10000 nM
HS-PSS [1]
  relative IC50: > 10000 nM
HS-Sch-2
  relative IC50: > 10000 nM
HS-PSS [2]
  relative IC50: > 10000 nM

## COc1cc2c(Nc3ccc(Cl)c(Cl)c3F)ncnc2cc1OC[C@H]1C[C@@H]2CN(C)C[C@@H]2C1 [XL-647]
YST-1
  relative IC50: 101 nM
HS-PSS [1]
  relative IC50: 406 nM
HS-Sch-2
  relative IC50: 367 nM
HS-PSS [2]
  relative IC50: > 1000 nM

## CCCCc1nc2cc(/C=C/C(=O)NO)ccc2n1CCN(CC)CC [Pracinostat]
YST-1
  relative IC50: 121 nM
HS-PSS [1]
  relative IC50: 728 nM
HS-Sch-2
  relative IC50: 429 nM
HS-PSS [2]
  relative IC50: 1630 nM

## NCCNc1ccc(NCCN)c2c1C(=O)c1ccncc1C2=O [Pixantrone]
YST-1
  relative IC50: 3300 nM
HS-PSS [1]
  relative IC50: 3000 nM
HS-Sch-2
  relative IC50: 3480 nM
HS-PSS [2]
  relative IC50: > 10000 nM

## O=C(O)CSc1cc(NS(=O)(=O)c2ccc(Br)cc2)c2ccccc2c1O [UMI-77]
YST-1
  relative IC50: 3040 nM
HS-PSS [1]
  relative IC50: 26900 nM
HS-Sch-2
  relative IC50: 5660 nM
HS-PSS [2]
  relative IC50: 30500 nM

## Cc1nc(Nc2n[nH]c3c2CN(C(=O)N[C@H](CN(C)C)c2ccccc2)C3(C)C)c2sccc2n1
YST-1
  relative IC50: 67 nM
HS-PSS [1]
  relative IC50: 22.5 nM
HS-Sch-2
  relative IC50: 413 nM
HS-PSS [2]
  relative IC50: 127 nM

## Cn1cc(C[C@@H](N)C(=O)O)c2ccccc21 [1-methyl-D-tryptophan]
YST-1
  relative IC50: > 5000 nM
HS-PSS [1]
  relative IC50: > 5000 nM
HS-Sch-2
  relative IC50: > 5000 nM
HS-PSS [2]
  relative IC50: > 5000 nM

## O=C1NC(=O)/C(=C/c2ccc3nccc(-c4ccncc4)c3c2)S1
YST-1
  relative IC50: 1170 nM
HS-PSS [1]
  relative IC50: 3060 nM
HS-Sch-2
  relative IC50: 3380 nM
HS-PSS [2]
  relative IC50: > 10000 nM

## O=C(Nc1cccc(Nc2ncc(Br)c(NCCc3cnc[nH]3)n2)c1)N1CCCC1 [BX-912]
YST-1
  relative IC50: 867 nM
HS-PSS [1]
  relative IC50: 1930 nM
HS-Sch-2
  relative IC50: 2750 nM
HS-PSS [2]
  relative IC50: > 10000 nM

## CN1CCC(CNc2ccc3ncc(-c4cccc(OC(F)(F)F)c4)n3n2)CC1 [SGI-1776]
YST-1
  relative IC50: 1660 nM
HS-PSS [1]
  relative IC50: 2470 nM
HS-Sch-2
  relative IC50: 2370 nM
HS-PSS [2]
  relative IC50: 2510 nM

## CN(C[C@@H]1COCCO1)S(=O)(=O)Nc1ccc2ccc3ncc(-c4cnn(C)c4)cc3c(=O)c2c1 [MK-2461]
YST-1
  relative IC50: 1680 nM
HS-PSS [1]
  relative IC50: 4100 nM
HS-Sch-2
  relative IC50: 3480 nM
HS-PSS [2]
  relative IC50: > 10000 nM

## CCS(=O)(=O)N1CCN(c2ccc(Nc3ncc(C(N)=O)c(NC4CC4)n3)cc2)CC1 [Cerdulatinib]
YST-1
  relative IC50: > 10000 nM
HS-PSS [1]
  relative IC50: 1270 nM
HS-Sch-2
  relative IC50: 1880 nM
HS-PSS [2]
  relative IC50: > 10000 nM

## CCN(CC)Cc1ccc2cc(COC(=O)Nc3ccc(C(=O)NO)cc3)ccc2c1 [Givinostat]
YST-1
  relative IC50: 63.7 nM
HS-PSS [1]
  relative IC50: 351 nM
HS-Sch-2
  relative IC50: 166 nM
HS-PSS [2]
  relative IC50: 253 nM

## CNC(=O)c1ccccc1Nc1nc(Nc2ccc3c(c2OC)CCC[C@H](N2CCN(CCO)CC2)C3)ncc1Cl
YST-1
  relative IC50: 633 nM
HS-PSS [1]
  relative IC50: 155 nM
HS-Sch-2
  relative IC50: 979 nM
HS-PSS [2]
  relative IC50: 1090 nM

## CCNC(=O)Nc1ccc(-c2nc3c(c(N4CCOC[C@@H]4C)n2)CCN(C2COC2)C3)cc1 [RG-7603]
YST-1
  relative IC50: 192 nM
HS-PSS [1]
  relative IC50: 777 nM
HS-Sch-2
  relative IC50: 356 nM
HS-PSS [2]
  relative IC50: > 2500 nM

## C[C@@H](Oc1ccc2[nH]nc(/C=C/c3cnn(CCO)c3)c2c1)c1c(Cl)cncc1Cl
YST-1
  relative IC50: 114 nM
HS-PSS [1]
  relative IC50: 187 nM
HS-Sch-2
  relative IC50: 118 nM
HS-PSS [2]
  relative IC50: 245 nM

## Cc1cnc(Nc2ccc(OCCN3CCCC3)cc2)nc1Nc1cccc(S(=O)(=O)NC(C)(C)C)c1 [Fedratinib]
YST-1
  relative IC50: 1520 nM
HS-PSS [1]
  relative IC50: 1440 nM
HS-Sch-2
  relative IC50: 1180 nM
HS-PSS [2]
  relative IC50: 3370 nM

## O=C(O)c1ccc(CN2CCC(CN[C@@H]3C[C@H]3c3ccccc3)CC2)cc1
YST-1
  relative IC50: > 10000 nM
HS-PSS [1]
  relative IC50: > 10000 nM
HS-Sch-2
  relative IC50: > 10000 nM
HS-PSS [2]
  relative IC50: > 10000 nM

## COc1cc(OC)c(/C=C/S(=O)(=O)Cc2ccc(OC)c(NCC(=O)O)c2)c(OC)c1 [Rigosertib]
YST-1
  relative IC50: 59.2 nM
HS-PSS [1]
  relative IC50: 130 nM
HS-Sch-2
  relative IC50: 92.2 nM
HS-PSS [2]
  relative IC50: > 10000 nM
